Experimental findings from patent US20140171404A1, “Autotaxin inhibitors” (NOVARTIS AG, priority 2012, published 2014) are described below.

Like-named read-outs stand apart in the source and are kept apart here.

The assay has as its target T1, Recombinant human ATX (Homo sapiens, UniProt Q13822).
T1 construct: made in house; host or cells: human embryonic kidney (HEK) cells
The assay can be described thus: Assessing ATX inhibition: released choline, Amplex Red fluorescence. It counts as biochemical. On the procedure: LPC (oleoyl (18:1)) was purchased from Avanti Polar Lipids (Alabaster; AL) and solubilized in methanol to 20 mM. Amplex Red was obtained from Invitrogen Life Technologies (Paisley, UK) and dissolved in DMSO to 10 mM. Choline oxidase and horseradish peroxidase (HRP) were obtained from Sigma Aldrich (Dorset, UK) and dissolved in HBSS to 20 U/ml and 200 U/ml respectively. All reagents were stored at −20° C. in single use aliquots. All experimental measurements were performed in assay buffer made up immediately prior to use (HBSS, 0.01% BSA essentially fatty acid free).
Recombinant human ATX was prepared at Novartis (Basel, CH) in a human embryonic kidney (HEK) cell preparation, and stored in single use aliquots of […] (26 μM) stocks stored at −80° C.
All experimental measurements were performed in black 384 well polystyrene (low volume, round bottom, Corning (3676)) plates. PerkinElmer EnVision (Fluorescence Intensity/Absorbance Monochromator) or Tecan Infinite 200 PRO series plate reader was used to detect change in fluorescent intensity.
ATX activity was determined by measurement of released choline in reactions containing ATX (10 nM), choline oxidase (0.1 U/ml), HRP (100 U/ml), amplex red (50 μM) and LPC 18:1 (10 μM). Compounds of the invention were prepared as 10 point serial dilutions from 1 μM in duplicate and pre-incubated with ATX at 37° C. for 20 minutes prior to the addition of remaining reagents. The liberated choline was measured from changes in fluorescence intensity (λex 530 nm, λem 590 nm) of the product resurofin at 37° C. every 2 minutes over a 40-minute period. ATX activity was measured as a slope of the linear portion of the progress curve, typically between 14 to 24 minutes.
Slope data was exported to Graphpad prism (Graphpad software, San Diego, Calif.) where data was fitted to equation 1.
Y=Bottom+(Top−Bottom)/(1+10̂((Log IC50−X)*HillSlope)) Equation 1: […]

Where [1] appears, read: ATX 10 nM, LPC 18:1 10 μM, pre-incubated with ATX at 37° C. for 20 minutes, Table 1, exemplified compounds, read-out: IC50.

What is called IC50 is the midpoint of a concentration-inhibition curve. Consider `O=C(CCCc1c[nH]nn1)NC1CCN(C(=O)OCc2cc(F)cc(Cl)c2)CC1` [Example 37, 3-Chloro-5-fluorobenzyl 4-(4-(1H-1,2,3-triazol-4-yl)butanamido)piperidine-1-carboxylate], for which, under setting [1], the IC50 stood at 55 nM. With `O=C(CCCc1c[nH]nn1)NC1CCN(C(=O)/C=C/c2cc(Cl)cc(Cl)c2)CC1` [Example 38, (E)-N-(1-(3-(3,5-Dichlorophenyl)acryloyl)piperidin-4-yl)-4-(1H-1,2,3-triazol-4-yl)butanamide], the IC50 under setting [1] was 21 nM. Still for that read-out and setting: the result for `O=C(CCCc1c[nH]nn1)NC1CCN(C(=O)/C=C/c2ccc(Cl)cc2Cl)CC1` [Example 39, (E)-N-(1-(3-(2,4-Dichlorophenyl)acryloyl)piperidin-4-yl)-4-(1H-1,2,3-triazol-4-yl)butanamide] reads 77 nM; that for `O=C(O)CCCCCCC(=O)NC1CCN(C(=O)OCc2cc(Cl)cc(Cl)c2)CC1` [Example 40, 8-((1-(((3,5-Dichlorobenzyl)oxy)carbonyl)piperidin-4-yl)amino)-8-oxooctanoic acid], 135 nM; that for `O=C(CCCc1cnn[nH]1)NCC1CCN(C(=O)OCc2cc(Cl)cc(Cl)c2)CC1` [Example 41, 3,5-Dichlorobenzyl 4-((4-(1H-1,2,3-triazol-5-yl)butanamido)methyl)piperidine-1-carboxylate], 18 nM.

As to `O=C(CCCc1c[nH]nn1)NC1CCN(C(=O)CCc2cc(Cl)cc(Cl)c2)CC1` [Example 42, N-(1-(3-(3,5-Dichlorophenyl)propanoyl)piperidin-4-yl)-4-(1H-1,2,3-triazol-4-yl)butanamide], the 50% inhibitory concentration (IC50) under setting [1] stood at 119 nM. On the same count and under the same terms, under `O=C(CCCc1c[nH]nn1)NC1CCN(C(=O)CCc2ccc(Cl)cc2Cl)CC1` [Example 43, N-(1-(3-(2,4-Dichlorophenyl)propanoyl)piperidin-4-yl)-4-(1H-1,2,3-triazol-4-yl)butanamide] stands 113 nM. As for `N#Cc1cc(Cl)cc(COC(=O)N2CCC(NC(=O)CCCc3c[nH]nn3)CC2)c1` [Example 44, 3-Chloro-5-cyanobenzyl 4-(4-(1H-1,2,3-triazol-4-yl)butanamido)piperidine-1-carboxylate], under setting [1], the IC50 amounted to 8 nM. As for `O=C(CCCc1c[nH]nn1)NC1CC2CCC(C1)N2C(=O)OCc1cc(Cl)cc(Cl)c1` (stereo not drawn) [Example 45, 3,5-Dichlorobenzyl 3-(4-(1H-1,2,3-triazol-4-yl)butanamido)-8-azabicyclo[3.2.1]octane-8-carboxylate], under setting [1], the half-inhibitory concentration (IC50) amounted to 555 nM. With `O=C(CCCc1c[nH]nn1)NC1CCCN(C(=O)OCc2cc(Cl)cc(Cl)c2)CC1` (stereo not drawn) [Example 46, 3,5-Dichlorobenzyl 4-(4-(1H-1,2,3-triazol-4-yl)butanamido)azepane-1-carboxylate], the IC50 under setting [1] turned out to be 731 nM. For `O=C(NC1CC2CCC(C1)N2C(=O)CCCc1c[nH]nn1)OCc1cc(Cl)cc(Cl)c1` (stereo not drawn) [Example 47, 3,5-Dichlorobenzyl (8-(4-(1H-1,2,3-triazol-4-yl)butanoyl)-8-azabicyclo[3.2.1]octan-3-yl)carbamate], the half-maximal inhibitory concentration (IC50) amounted to 3160 nM. Consider `O=C(NC1CCCN(C(=O)CCCc2c[nH]nn2)CC1)OCc1cc(Cl)cc(Cl)c1` (stereo not drawn) [Example 48, 3,5-Dichlorobenzyl (1-(4-(1H-1,2,3-triazol-4-yl)butanoyl)azepan-4-yl)carbamate], for which, under setting [1], the half-maximal inhibitory concentration (IC50) stood at 791 nM. As for `O=C(CCCc1c[nH]nn1)NC1CN(C(=O)OCc2cc(Cl)cc(Cl)c2)C1` [Example 50, 3,5-Dichlorobenzyl 3-(4-(1H-1,2,3-triazol-4-yl)butanamido)azetidine-1-carboxylate], under setting [1], the IC50 came out at 12 nM. On the same count and under the same terms, under `Cc1cc(C)cc(COC(=O)N2CCC(NC(=O)CCCc3c[nH]nn3)CC2)c1` [Example 51, 3,5-Dimethyl benzyl 4-(4-(1H-1,2,3-triazol-4-yl)butanamido)piperidine-1-carboxylate] stands 6 nM; under `O=C(NC1CCN(C(=O)CCCCc2c[nH]nn2)CC1)OCc1cc(Cl)cc(Cl)c1` [Example 52, 3,5-Dichlorobenzyl (1-(5-(1H-1,2,3-triazol-4-yl)pentanoyl)piperidin-4-yl)carbamate], 42 nM.
